The values that follow come from patent publication US9029337B2, “Modulation of factor 7 expression” (Isis Pharmaceuticals, Inc., priority 2007, dated 2015).

Strand notation (5' to 3'): a small letter for the sugar, then the base; units joined by * are phosphorothioate-linked, units joined directly phosphodiester-linked; [ ] holds rarer units or linkages, { } end groups; capitals alone tell only the bases. e = 2'-O-(2-methoxyethyl) (MOE); [5mC] = 5-methylcytosine; d = 2'-deoxy (DNA)

The test system of the first data set is human Factor 7 mRNA. The data set can be described thus: Antisense inhibition of human Factor 7 mRNA in HepB3 cells, 50 nM antisense oligonucleotide, lipofectin. The data set is classed as cell-based. The following applies: Table 1, 50 nM, lipofectin, approximately 24 hours, relative to untreated control cells. The method, then:
Antisense oligonucleotides targeted to a Factor 7 nucleic acid were tested for their effects on Factor 7 mRNA in vitro. Cultured HepB3 cells at a density of 4,000 cells per well were transfected using lipofectin reagent with 50 nM antisense oligonucleotide. After a treatment period of approximately 24 hours, RNA was isolated from the cells and Factor 7 mRNA levels were measured by real-time RT-PCR, as described herein. Factor 7 mRNA levels were adjusted according to total RNA content as measured by RIBOGREEN®. Results are presented as percent inhibition of Factor 7, relative to untreated control cells.
(§1) Antisense oligonucleotides targeted to a Factor 7 nucleic acid were designed and tested for their effects on Factor 7 mRNA in vitro. Certain antisense oligonucleotides from Table 3 were also retested for their effects on Factor 7 mRNA in vitro. Cultured HepB3 cells at a density of 4,000 cells per well were transfected using lipofectin reagent with 50 nM antisense oligonucleotide. After a treatment period of approximately 24 hours, RNA was isolated from the cells and Factor 7 mRNA levels were measured by real-time RT-PCR, as described herein. Human Factor 7 primer probe set RTS 2927 was used to measure mRNA levels. Factor 7 mRNA levels were adjusted according to total RNA content as measured by RIBOGREEN®. Results are presented as percent inhibition of Factor 7, relative to untreated control.
as §1, with “tested” for “tested for their effects on Factor 7 mRNA in vitro. Certain antisense oligonucleotides from Table 3 were also retested”
These gapmers were designed by creating gapmers shifted slightly upstream and downstream (i.e. “microwalk”) of the original gapmers from Table 7. Gapmers were also created with various motifs, e.g. 5-10-5 MOE, 3-14-3 MOE, and 2-13-5 MOE. These gapmers were tested in vitro. Cultured HepB3 cells at a density of 4,000 cells per well were transfected using lipofectin reagent with 50 nM antisense oligonucleotide. After a treatment period of approximately 24 hours, RNA was isolated from the cells and Factor 7 mRNA levels were measured by real-time RT-PCR. Factor 7 mRNA levels were adjusted according to total RNA content, as measured by RIBOGREEN®. Results are presented as percent inhibition of Factor 7, relative to untreated control cells.
As to “407631 (antisense eG*eG*eG*e[5mC]*eA*d[5mC]*d[5mC]*dA*d[5mC]*dA*dT*dG*dG*dT*d[5mC]*eA*eG*eT*eG*eA) [compound 407631]”, the “% Inhibition” value amounted to 66%.
Still for that read-out and setting: the result for “407632 (antisense eT*e[5mC]*e[5mC]*eG*eT*dT*d[5mC]*dG*dG*dG*d[5mC]*dA*dG*dG*d[5mC]*eA*eG*eA*eG*eG) [compound 407632]” reads 46%; that for “407633 (antisense eG*e[5mC]*eA*eG*eG*d[5mC]*dA*dG*dT*d[5mC]*d[5mC]*dT*dG*dG*dG*eT*e[5mC]*eA*eT*e[5mC]) [compound 407633]”, 71%.
On the same count and under the same terms, the result for “407634 (antisense eG*eT*eG*eA*e[5mC]*dT*dG*d[5mC]*dT*dG*d[5mC]*dA*dG*dG*d[5mC]*eA*eG*eT*e[5mC]*e[5mC]) [compound 407634]” reads 24%.
Turning to “407635 (antisense eT*eG*eG*e[5mC]*e[5mC]*d[5mC]*d[5mC]*dA*dG*d[5mC]*dT*dG*dA*d[5mC]*dG*eA*eT*eG*e[5mC]*e[5mC]) [compound 407635]”, the “% Inhibition” value is listed as 64%.
The same measure, in the same setting: the result for “407636 (antisense eG*e[5mC]*eA*eG*e[5mC]*d[5mC]*d[5mC]*dT*dG*dG*d[5mC]*d[5mC]*d[5mC]*d[5mC]*dA*eG*e[5mC]*eT*eG*eA) [compound 407636]” reads 75%.
Same read-out and setting: the result for “407637 (antisense eG*eT*eA*e[5mC]*eT*dG*dG*dG*dA*dG*dA*d[5mC]*d[5mC]*d[5mC]*dT*eG*eG*eT*eG*eT) [compound 407637]” reads 71%; that for “407638 (antisense eG*e[5mC]*e[5mC]*eA*e[5mC]*dT*d[5mC]*dG*dA*dT*dG*dT*dA*d[5mC]*dT*eG*eG*eG*eA*eG) [compound 407638]”, 0%; that for “407639 (antisense eT*eT*eT*eG*e[5mC]*dA*dG*d[5mC]*d[5mC]*dA*d[5mC]*dT*d[5mC]*dG*dA*eT*eG*eT*eA*e[5mC]) [compound 407639]”, 76%.
Turning to “407640 (antisense eG*e[5mC]*eA*eT*eG*dA*dG*d[5mC]*dT*dT*dT*dT*dG*d[5mC]*dA*eG*e[5mC]*e[5mC]*eA*e[5mC]) [compound 407640]”, the “% Inhibition” value amounted to 79%.
On to “407642 (antisense e[5mC]*eA*eG*e[5mC]*eA*dG*d[5mC]*d[5mC]*dT*dG*dA*dG*dG*d[5mC]*d[5mC]*eA*eG*e[5mC]*eA*eG) [compound 407642]”, for which the “% Inhibition” value amounted to 78%.
With “407644 (antisense eG*eA*eG*eG*eA*d[5mC]*dA*dG*d[5mC]*dA*d[5mC]*dA*d[5mC]*dA*dT*eG*eG*eA*eG*eT) [compound 407644]”, the “% Inhibition” value was 66%.
On the same count and under the same terms, the result for “407645 (antisense eG*eA*eG*eA*eG*d[5mC]*dT*dA*dA*dA*d[5mC]*dA*dA*d[5mC]*d[5mC]*eG*e[5mC]*e[5mC]*eT*eT) [compound 407645]” reads 65%.
Take “407646 (antisense eG*eG*eT*eG*eA*dT*dG*d[5mC]*dT*dT*d[5mC]*dT*dG*dA*dA*eT*eT*eG*eT*e[5mC]) [compound 407646]”: the “% Inhibition” value came out at 81%.
Consider “407647 (antisense eG*e[5mC]*eA*eG*e[5mC]*d[5mC]*dG*dT*dT*dT*dA*dT*dT*dG*dT*eG*eA*eA*eG*e[5mC]) [compound 407647]”, for which the “% Inhibition” value is 83%.
On to “407649 (antisense eG*eA*eG*eG*eG*dT*dT*d[5mC]*dA*dT*dT*dT*d[5mC]*dA*dG*eT*eG*eA*eT*eG) [compound 407649]”, for which the “% Inhibition” value was 24%.
On to “407650 (antisense e[5mC]*e[5mC]*eA*eT*eG*dT*dG*dA*dG*dG*dG*dT*dT*d[5mC]*dA*eT*eT*eT*e[5mC]*eA) [compound 407650]”, for which the “% Inhibition” value was 39%.
On to “407651 (antisense eA*eG*e[5mC]*e[5mC]*eT*d[5mC]*dA*dA*dA*d[5mC]*dA*dT*d[5mC]*dT*dA*eT*e[5mC]*eA*eA*eA) [compound 407651]”, for which the “% Inhibition” value is 32%.
On the same count and under the same terms, the result for “407652 (antisense eT*eG*eG*eG*eA*dG*d[5mC]*dT*dA*d[5mC]*dA*dG*d[5mC]*d[5mC]*dT*e[5mC]*eA*eA*eA*e[5mC]) [compound 407652]” reads 30%.
On the same count and under the same terms, the result for “407653 (antisense eA*eA*eT*eA*eT*d[5mC]*dA*dT*dT*dG*dA*d[5mC]*dA*dA*dG*eG*eG*e[5mC]*eT*eG) [compound 407653]” reads 21%; that for “407654 (antisense e[5mC]*e[5mC]*eA*e[5mC]*eT*dG*d[5mC]*dA*dG*d[5mC]*d[5mC]*dA*dG*dG*dG*e[5mC]*e[5mC]*eT*eG*eG) [compound 407654]”, 34%.
Same read-out and setting: the result for “407655 (antisense eA*eG*eA*eG*eT*dG*d[5mC]*dA*dG*d[5mC]*dT*dT*dG*d[5mC]*d[5mC]*eA*eG*eG*eT*e[5mC]) [compound 407655]” reads 28%; that for “407656 (antisense e[5mC]*eA*eG*e[5mC]*eA*dA*dG*dA*dG*dT*dG*d[5mC]*dA*dG*d[5mC]*eT*eT*eG*e[5mC]*e[5mC]) [compound 407656]”, 43%.
As for “407657 (antisense eG*eG*eG*eA*e[5mC]*dT*d[5mC]*dA*dG*d[5mC]*dA*dA*dG*dA*dG*eT*eG*e[5mC]*eA*eG) [compound 407657]”, the “% Inhibition” value turned out to be 26%.
On the same count and under the same terms, the result for “407658 (antisense eG*e[5mC]*eT*eT*eG*d[5mC]*d[5mC]*dG*dG*dA*dG*dT*d[5mC]*dT*dG*eA*eG*eT*eG*eG) [compound 407658]” reads 16%; that for “407659 (antisense eG*eA*eT*eG*eG*d[5mC]*dA*dT*d[5mC]*dG*dA*dG*dT*d[5mC]*d[5mC]*eA*e[5mC]*eT*e[5mC]*eT) [compound 407659]”, 55%.
As to “407660 (antisense eG*e[5mC]*eT*e[5mC]*eT*dG*dA*dA*dG*dT*dA*dG*dA*dT*dG*eA*eT*eG*e[5mC]*e[5mC]) [compound 407660]”, the “% Inhibition” value turned out to be 16%.
Still for that read-out and setting: the result for “407661 (antisense eT*eT*eT*eA*e[5mC]*dA*dA*dG*dA*dG*d[5mC]*dA*dG*dG*dG*eT*eG*e[5mC]*e[5mC]*eT) [compound 407661]” reads 47%; that for “407663 (antisense eT*eT*eG*e[5mC]*eA*dG*dG*d[5mC]*dA*dG*dG*dA*d[5mC]*dT*dG*eG*eT*eG*eG*eT) [compound 407663]”, 44%.
Take “407664 (antisense e[5mC]*eA*eG*eG*eG*d[5mC]*dG*dA*dG*dG*d[5mC]*dA*dA*d[5mC]*d[5mC]*e[5mC]*e[5mC]*eG*eT*eG) [compound 407664]”: the “% Inhibition” value is 70%.
Turning to “407665 (antisense eG*eT*eT*eA*e[5mC]*dG*dA*dA*dG*dA*d[5mC]*dT*dG*dG*dG*eA*eA*eA*eT*eG) [compound 407665]”, the “% Inhibition” value was found to be 29%.
For “407666 (antisense eT*e[5mC]*e[5mC]*e[5mC]*e[5mC]*dA*dG*dG*dA*d[5mC]*dA*dT*d[5mC]*dT*dG*eG*eA*eA*e[5mC]*eT) [compound 407666]”, the “% Inhibition” value is given as 52%.
On the same count and under the same terms, the result for “407667 (antisense eG*eT*eG*eG*e[5mC]*d[5mC]*dA*dT*dG*d[5mC]*d[5mC]*d[5mC]*dT*dG*dG*eG*eT*e[5mC]*eA*eG) [compound 407667]” reads 71%.

The data set is the same for the next values; noted with them: oligonucleotides targeted to nucleobases 14707 to 14732 of SEQ ID NO: 1 (Table 11).
On to “407642 (antisense e[5mC]*eA*eG*e[5mC]*eA*dG*d[5mC]*d[5mC]*dT*dG*dA*dG*dG*d[5mC]*d[5mC]*eA*eG*e[5mC]*eA*eG) [compound 407642]”, for which the “% Inhibition (human Factor 7 mRNA levels)” value is on record as 63%.
